Tested on: mouse pendrin gene
Experiment: Quantitative PCR of the mouse pendrin gene in the lung of the OVA antigen-exposed bronchial hypersensitivity model
Type: in vivo
Details: lung 24 hours after third antigen inhalation

Substance: ovalbumin [OVA antigen, ovalbumin antigen used for sensitization and inhalation to induce bronchial hypersensitivity in mice]
- mouse pendrin gene expression level in the lung versus physiological saline-inhaled mice (quantitative PCR): about 50 times

— patent publication US20050208496A1, “Methods of testing for bronchial asthma or chronic obstructive pulmonary disease” (Genox Research, Inc., priority 2002, published 2005)
